Assay results from patent US20110086759A1, “CHEMICAL COMPOUNDS” (SYNGENTA CROP PROTECTION, INC., priority 2007, published 2011).

Legend:
Format in all cases: in vivo
[1] = test system: Alopecurus myosuroides (ALOMY); test: Pre-emergence biological efficacy, glasshouse pot test; details: 312 h, pre-emergence, rate 1,000 g/ha, evaluated after 13 days (100=total damage to plant; 0=no damage), read-out: Percentage damage caused to weed species, ALOMY
Procedure, shortened: (§1)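 Standard soil, pots, sown then sprayed at day 1 with 1000 or 250 g/ha test compound. Glasshouse: 24/16 °C, 14 h photoperiod, 65% humidity, twice-daily watering. Evaluation day 13, 0–100 damage score.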

[2] = test system: Amaranthus retoflexus (AMARE); test: as above; details: Amaranthus retroflexus, 312 h; pre-emergence, rate 1,000 g/ha, evaluated after 13 days (100=total damage to plant; 0=no damage); read-out: Percentage damage caused to weed species, AMARE
Procedure, shortened: as §1

[3] = test system: Echinochloa crus-galli (ECHCG); test: as above; details: 312 h, pre-emergence, rate 1,000 g/ha, evaluated after 13 days (100=total damage to plant; 0=no damage), read-out: Percentage damage caused to weed species, ECHCG
Procedure, shortened: as §1

[4] = test system: Ipomea hederaceae (IPOHE); test: as above; details: Ipomoea hederacea, 312 h; pre-emergence, rate 1,000 g/ha, evaluated after 13 days (100=total damage to plant; 0=no damage); read-out: Percentage damage caused to weed species, IPOHE
Procedure, shortened: as §1

[5] = test system: Setaria faberi (SETFA); test: as above; details: 312 h, pre-emergence, rate 1,000 g/ha, evaluated after 13 days (100=total damage to plant; 0=no damage), read-out: Percentage damage caused to weed species, SETFA
Procedure, shortened: as §1

[6] = test system: Solanum nigrum (SOLNI); test: as above; details: 312 h, pre-emergence, rate 1,000 g/ha, evaluated after 13 days (100=total damage to plant; 0=no damage), read-out: Percentage damage caused to weed species, SOLNI
Procedure, shortened: as §1

[7] = test system: Alopecurus myosuroides (ALOMY); test: Post-emergence biological efficacy, glasshouse pot test; details: 312 h, Rate 1,000 g/ha, post-emergence spray, evaluated after 13 days (100=total damage to plant; 0=no damage to plant), read-out: Percentage damage caused to weed species, post-emergence, ALOMY
Procedure, shortened: (§2)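 Scored 13 days after spraying on a 0 (no damage) to 100 (total damage) scale. Treatment was a post-emergence spray at 1000 or 250 g/ha, from acetone/water 50:50 plus 0.5% Tween 20, onto 8-day-old plants in soil pots. Growth at 24/16° C, 14 h photoperiod, 65% humidity, watered twice daily.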

[8] = test system: Amaranthus retoflexus (AMARE); test: as above; details: Amaranthus retroflexus, 312 h; Rate 1,000 g/ha; post-emergence spray; evaluated after 13 days (100=total damage to plant; 0=no damage to plant); read-out: Percentage damage caused to weed species, post-emergence, AMARE
Procedure, shortened: as §2

[9] = test system: Echinochloa crus-galli (ECHCG); test: as above; details: 312 h, Rate 1,000 g/ha, post-emergence spray, evaluated after 13 days (100=total damage to plant; 0=no damage to plant), read-out: Percentage damage caused to weed species, post-emergence, ECHCG
Procedure, shortened: as §2

[10] = test system: Ipomea hederaceae (IPOHE); test: as above; details: Ipomoea hederacea, 312 h; Rate 1,000 g/ha; post-emergence spray; evaluated after 13 days (100=total damage to plant; 0=no damage to plant); read-out: Percentage damage caused to weed species, post-emergence, IPOHE
Procedure, shortened: as §2

[11] = test system: Setaria faberi (SETFA); test: as above; details: 312 h, Rate 1,000 g/ha, post-emergence spray, evaluated after 13 days (100=total damage to plant; 0=no damage to plant), read-out: Percentage damage caused to weed species, post-emergence, SETFA
Procedure, shortened: as §2

[12] = test system: Solanum nigrum (SOLNI); test: as above; details: 312 h, Rate 1,000 g/ha, post-emergence spray, evaluated after 13 days (100=total damage to plant; 0=no damage to plant), read-out: Percentage damage caused to weed species, post-emergence, SOLNI
Procedure, shortened: as §2

SMILES	pest or weed control at 1000 g/ha [1] [%]	pest or weed control at 1000 g/ha [2] [%]	pest or weed control at 1000 g/ha [3] [%]	pest or weed control at 1000 g/ha [4] [%]	pest or weed control at 1000 g/ha [5] [%]	pest or weed control at 1000 g/ha [6] [%]	pest or weed control at 1000 g/ha [7] [%]	pest or weed control at 1000 g/ha [8] [%]	pest or weed control at 1000 g/ha [9] [%]	pest or weed control at 1000 g/ha [10] [%]	pest or weed control at 1000 g/ha [11] [%]	pest or weed control at 1000 g/ha [12] [%]
COC(=O)c1nc(-c2ccc(C(F)(F)F)cc2C(F)(F)F)nc(NCc2ccco2)c1Cl [Compound 234-48, 2-[2,4-Bis(trifluoro-methyl)phenyl]-5-chloro-4-(furan-2-yl-methylamino)-6-methoxycarbonyl-pyrimidine]	20	90	10	100	10	80	10	100	30	100	40	80
COC(=O)c1nc(-c2ccc(C(F)(F)F)c(Cl)c2)nc(NCc2ccco2)c1Cl [Compound 235-48, 5-Chloro-2-(3-chloro-4-trifluoromethyl-phenyl)-4-(furan-2-ylmethylamino)-6-methoxycarbonyl-pyrimidine]	0	10	0	20	0	20	10	80	0	60	10	80
COC(=O)c1nc(-c2ccc(C)cc2)nc(NCc2ccco2)c1Cl [Compound 237-48, 5-Chloro-4-(furan-2-ylmethylamino)-6-methoxycarbonyl-2-(4-methylphenyl)-pyrimidine]	20	100	20	30	0	0	0	100	0	70	0	60
COC(=O)c1nc(-c2ccc(C)cc2Cl)nc(NCc2ccco2)c1Cl [Compound 238-48, 5-Chloro-2-(2-chloro-4-methylphenyl)-4-(furan-2-yl-methyl-amino)-6-methoxy-carbonylpyrimidine]	20	100	0	0	10	0	10	100	0	60	0	30
COC(=O)c1nc(-c2ccc(C)c(Cl)c2)nc(NCc2ccco2)c1Cl [Compound 239-48, 5-Chloro-2-(3-chloro-4-methylphenyl)-4-(furan-2-yl-methyl-amino)-6-methoxy-carbonylpyrimidine]	0	0	0	0	0	0	0	20	0	30	0	30
COC(=O)c1nc(-c2ccc(C)c(F)c2)nc(NCc2ccco2)c1Cl [Compound 240-48, 5-Chloro-2-(3-fluoro-4-methylphenyl)-4-(furan-2-yl-methyl-amino)-6-methoxy-carbonylpyrimidine]	0	100	0	0	0	50	0	100	20	70	10	30
COC(=O)c1nc(-c2cc(F)c(F)cc2F)nc(NCc2ccco2)c1Cl [Compound 241-48, 5-Chloro-4-(furan-2-ylmethylamino)-6-methoxycarbony-2-(2,4,5-trifluoro-phenyl)pyrimidine]	0	80	0	10	0	0	10	80	0	60	10	50
COC(=O)c1nc(-c2ccc(F)cc2)nc(NCc2ccco2)c1Cl [Compound 242-48, 5-Chloro-2-(4-fluorophenyl)-4-(furan-2-yl-methyl-amino)-6-methoxy-carbonylpyrimidine]	10	100	0	20	0	20	20	100	20	60	20	50
COC(=O)c1nc(-c2ccc(F)c(OC)c2)nc(NCc2ccco2)c1Cl [Compound 243-48, 5-Chloro-2-(4-fluoro-3-methoxyphenyl)-4-(furan-2-yl-methyl-amino)-6-methoxy-carbonylpyrimidine]	10	60	0	0	40	10	10	100	40	10	60	60
COC(=O)c1nc(-c2ccc(F)c(C(F)(F)F)c2)nc(NCc2ccco2)c1Cl [Compound 244-48, 5-Chloro-2-(4-fluoro-3-trifluoromethyl-phenyl)-4-(furan-2-ylmethylamino)-6-methoxycarbonyl-pyrimidine]	30	10	20	0	60	30	30	50	60	30	80	80
